Test results reported in patent US4443436A, “C-20-Modified macrolide derivatives of the macrolide antibiotics tylosin, desmycosin, macrocin, and lactenocin” (Eli Lilly and Company, priority 1982, dated 1984).
In brackets after ≈: the same amount, converted by molar mass. Where two headings read alike, the source gives them in different places.

How the values were obtained:
Format in all cases: cell-based
[1] = test system: Staphylococcus epidermidis EPI1; test: MIC, standard agar-dilution assay, Staphylococcus epidermidis EPI1
[2] = test system: Staphylococcus epidermidis EPI2; test: MIC, standard agar-dilution assay, Staphylococcus epidermidis EPI2
[3] = test system: Staphylococcus aureus V41; test: MIC, standard agar-dilution assay, Staphylococcus aureus V41
Streptococcus bovis 80 = test: MIC, broth-dilution microtiter test, Streptococcus bovis 80; details: Streptococcus equinus
Text: (§1) The MIC's in Table X were obtained using conventional broth-dilution microtiter tests.

[4] = test system: Pasteurella multocida 60A; test: MIC, broth-dilution microtiter test, Pasteurella multocida 60A; details: Pasteurella multocida 60A; avian isolate; broth-dilution microtiter; read-out: MIC
Text: as §1

Mycoplasma gallisepticum = test: MIC, broth-dilution microtiter test, Mycoplasma gallisepticum; details: Mycoplasmoides gallisepticum
Text: as §1

[5] = test system: Streptococcus pneumoniae Park I; test: microbe, parasite or virus in culture
[6] = test system: Streptococcus pyogenes C203; test: MIC, standard agar-dilution assay, Streptococcus pyogenes C203
[7] = test system: Haemophilus influenzae Holt; test: MIC, standard agar-dilution assay, Haemophilus influenzae Holt
[8] = test system: Staphylococcus aureus X1.1; test: MIC, standard agar-dilution assay, Staphylococcus aureus X1.1
[9] = test system: Staphylococcus aureus X400; test: MIC, standard agar-dilution assay, Staphylococcus aureus X400
Streptococcus Group 9960 = test: MIC, standard agar-dilution assay, Streptococcus Group 9960; details: Streptococcus Group 9960, agar dilution
[10] = test system: Pasteurella hemolytica 22C; test: MIC, broth-dilution microtiter test, Pasteurella hemolytica 22C; details: Pasteurella hemolytica 22C; broth-dilution microtiter; read-out: MIC
Text: as §1

[11] = test system: Pasteurella multocida 17E; test: MIC, broth-dilution microtiter test, Pasteurella multocida 17E
Text: as §1

Staphylococcus aureus = test: MIC, broth-dilution microtiter test, Staphylococcus aureus
Text: as §1

[12] = test system: Staphylococcus aureus S13E; test: MIC, standard agar-dilution assay, Staphylococcus aureus S13E
Mycoplasma hyorhinis = test: MIC, broth-dilution microtiter test, Mycoplasma hyorhinis
Text: as §1

[13] = test system: Streptococcus Group D X66; test: MIC, standard agar-dilution assay, Streptococcus Group D X66; details: Streptococcus Group D X66, agar dilution
[14] = test system: Haemophilus influenzae R252; test: MIC, standard agar-dilution assay, Haemophilus influenzae R252
[15] = Staphylococcus epidermidis, EPI1
[16] = Staphylococcus epidermidis, EPI2

Structure (SMILES) | MIC [1, 15] [µg/mL] | MIC [2, 16] [µg/mL] | MIC ([3]; Staphylococcus aureus, V41) [µg/mL] | MIC [4] [µg/mL] | MIC (Mycoplasma gallisepticum) [µg/mL] | MIC ([5]; Streptococcus pneumoniae) [µg/mL] | MIC ([6]; Streptococcus pyogenes, C203) [µg/mL] | MIC ([7]; Haemophilus influenzae) [µg/mL] | MIC ([8]; Staphylococcus aureus, X1.1) [µg/mL] | MIC ([9]; Staphylococcus aureus, X400) [µg/mL] | MIC (Streptococcus Group 9960; GROUP9960, read-out: MIC) [µg/mL] | MIC [10] [µg/mL] | MIC (Staphylococcus aureus) [µg/mL] | MIC ([12]; Staphylococcus aureus, S13E) [µg/mL] | MIC ([13]; read-out: MIC) [µg/mL] | MIC ([14]; Haemophilus influenzae, R252) [µg/mL] | other results
CCC1OC(=O)CC(O)C(C)C(OC2OC(C)C(OC3CC(C)(O)C(O)C(C)O3)C(N(C)C)C2O)C(CCNC(=O)Cc2ccccc2)CC(C)C(=O)C=CC(C)=CC1COC1OC(C)C(O)C(OC)C1OC (centres unmarked) [Compound 3, 20-DH-DO-20-[N-(Phenylacetyl)amino]tylosin] | 0.5 (≈ 0.483 µM) | 0.5 (≈ 0.483 µM) | 1 (≈ 0.966 µM) | > 50 | 0.78 (≈ 0.753 µM) | 1 (≈ 0.966 µM) | 2 (≈ 1.93 µM) | 128 (≈ 124 µM) | 1 (≈ 0.966 µM) | 2 (≈ 1.93 µM) | 64 (≈ 61.8 µM) | > 50 | 1.56 (≈ 1.51 µM) | 0.5 (≈ 0.483 µM) | 64 (≈ 61.8 µM) | 64 (≈ 61.8 µM) | MIC (Streptococcus bovis 80; Streptococcus bovis 80, broth-dilution microtiter, read-out: MIC): 6.25 µg/mL (≈ 6.04 µM); MIC ([11]; Pasteurella multocida 17E, bovine isolate, broth-dilution microtiter, read-out: MIC): > 50 µg/mL; MIC (Mycoplasma hyorhinis; Mycoplasma): 12.5 µg/mL (≈ 12.1 µM)
CCC1OC(=O)CC(O)C(C)C(OC2OC(C)C(OC3CC(C)(O)C(O)C(C)O3)C(N(C)C)C2O)C(CCOC(=O)c2nn(CC)c3cc4c(cc3c2=O)OCO4)CC(C)C(=O)C=CC(C)=CC1COC1OC(C)C(O)C(OC)C1OC (centres unmarked) [Compound 10, 20-DH-20-O-Cinoxacinyltylosin] | 2 (≈ 1.72 µM) | 8 (≈ 6.88 µM) | 2 (≈ 1.72 µM) | > 50 | 0.78 (≈ 0.671 µM) | 0.5 (≈ 0.43 µM) | 1 (≈ 0.86 µM) | 128 (≈ 110 µM) | 1 (≈ 0.86 µM) | 8 (≈ 6.88 µM) | 8 (≈ 6.88 µM) | > 50 | 12.5 (≈ 10.8 µM) | 4 (≈ 3.44 µM) | 8 (≈ 6.88 µM) | 128 (≈ 110 µM) | MIC (Streptococcus bovis 80; 80): 3.12 µg/mL (≈ 2.68 µM); MIC ([11]; Pasteurella multocida, 17E): > 50 µg/mL; MIC (Mycoplasma hyorhinis; Mycoplasma hyorhinis, broth-dilution microtiter, read-out: MIC): 25 µg/mL (≈ 21.5 µM)
CCC1OC(=O)CC(O)C(C)C(OC2OC(C)C(OC3CC(C)(O)C(O)C(C)O3)C(N(C)C)C2O)C(CCOc2ccc(-c3ccccc3)cc2)CC(C)C(=O)C=CC(C)=CC1COC1OC(C)C(O)C(OC)C1OC (centres unmarked) [Compound 18, 20-DH-20-O-(p-Phenylphenyl)tylosin] | 2 (≈ 1.87 µM) | – | 2 (≈ 1.87 µM) | – | – | – | – | – | 2 (≈ 1.87 µM) | 2 (≈ 1.87 µM) | > 128 | – | – | 2 (≈ 1.87 µM) | 8 (≈ 7.47 µM) | – | MIC ([2]; Staphylococcus epidermidis EPI2, agar dilution, read-out: MIC): 0.5 µg/mL (≈ 0.467 µM); MIC ([5]; Streptococcus pneumoniae Park I, agar dilution, read-out: MIC): 1 µg/mL (≈ 0.934 µM); MIC ([6]; Streptococcus pyogenes C203, agar dilution, read-out: MIC): 2 µg/mL (≈ 1.87 µM); MIC ([7]; Haemophilus influenzae Holt, ampicillin-sensitive strain, read-out: MIC): > 128 µg/mL; MIC ([14]; Haemophilus influenzae R252, ampicillin-resistant strain, read-out: MIC): > 128 µg/mL
CCC1OC(=O)CC(O)C(C)C(OC2OC(C)C(OC3CC(C)(O)C(O)C(C)O3)C(N(C)C)C2O)C(CCOc2ncnc3ccccc23)CC(C)C(=O)C=CC(C)=CC1COC1OC(C)C(O)C(OC)C1OC (centres unmarked) [Compound 19a] | – | – | – | – | – | – | – | – | – | – | – | – | – | – | – | – | MIC ([1]; Staphylococcus epidermidis EPI1, agar dilution): 1 µg/mL (≈ 0.956 µM); MIC ([2]; Staphylococcus epidermidis EPI2, agar dilution): 0.5 µg/mL (≈ 0.478 µM); MIC ([3]; Staphylococcus aureus V41, penicillin-resistant strain, agar dilution): 0.5 µg/mL (≈ 0.478 µM); MIC ([5]; Streptococcus pneumoniae Park I, agar dilution): 4 µg/mL (≈ 3.82 µM); MIC ([6]; Streptococcus pyogenes C203, agar dilution): 4 µg/mL (≈ 3.82 µM); MIC ([7]; Haemophilus influenzae Holt, ampicillin-sensitive strain, agar dilution): 128 µg/mL (≈ 122 µM); MIC ([8]; Staphylococcus aureus X1.1, agar dilution): 0.5 µg/mL (≈ 0.478 µM); MIC ([9]; Staphylococcus aureus X400, methicillin-resistant strain, agar dilution): 1 µg/mL (≈ 0.956 µM); MIC (Streptococcus Group 9960): 64 µg/mL (≈ 61.2 µM); MIC ([12]; Staphylococcus aureus S13E, agar dilution): 0.5 µg/mL (≈ 0.478 µM); MIC [13]: 32 µg/mL (≈ 30.6 µM); MIC ([14]; Haemophilus influenzae R252, ampicillin-resistant strain, agar dilution): -- (Not active at 128 mcg/ml, the highest level tested)
